Columns and labels:
Acetylcholinesterase = Acetylcholinesterase (Electrophorus electricus, UniProt O42275); test: Inhibition of Electrophorus electricus AChE using acetylthiocholine iodide as substrate measured during 6 mins by Ellman's method
[1] = target: Acetylcholinesterase (Electrophorus electricus) (UniProt O42275); test: Inhibition of Electrophorus electricus AChE at 50 uM using acetylthiocholine iodide as substrate measured after 10 mins by Ellman's method relative to control
Acetylcholinesterase (Electrophorus electricus), sequence (O42275 24-633 limits assumed): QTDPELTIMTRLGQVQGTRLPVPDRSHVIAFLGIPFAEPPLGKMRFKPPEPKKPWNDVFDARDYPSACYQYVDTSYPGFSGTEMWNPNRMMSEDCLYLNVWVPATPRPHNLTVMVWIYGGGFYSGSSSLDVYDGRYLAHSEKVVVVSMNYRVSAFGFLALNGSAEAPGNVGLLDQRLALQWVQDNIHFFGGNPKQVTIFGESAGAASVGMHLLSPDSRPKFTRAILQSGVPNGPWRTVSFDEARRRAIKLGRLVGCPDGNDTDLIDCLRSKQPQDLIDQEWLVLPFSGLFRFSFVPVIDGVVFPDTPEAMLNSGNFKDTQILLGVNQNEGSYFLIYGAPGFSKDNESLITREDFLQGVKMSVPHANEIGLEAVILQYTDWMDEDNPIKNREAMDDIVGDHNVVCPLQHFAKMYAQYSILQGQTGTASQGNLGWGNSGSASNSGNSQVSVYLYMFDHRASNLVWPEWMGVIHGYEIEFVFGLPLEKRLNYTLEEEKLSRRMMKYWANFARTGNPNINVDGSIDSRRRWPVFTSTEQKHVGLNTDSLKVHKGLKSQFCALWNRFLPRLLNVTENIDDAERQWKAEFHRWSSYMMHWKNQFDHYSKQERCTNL

Acetylcholinesterase, sequence (O42275 whole entry): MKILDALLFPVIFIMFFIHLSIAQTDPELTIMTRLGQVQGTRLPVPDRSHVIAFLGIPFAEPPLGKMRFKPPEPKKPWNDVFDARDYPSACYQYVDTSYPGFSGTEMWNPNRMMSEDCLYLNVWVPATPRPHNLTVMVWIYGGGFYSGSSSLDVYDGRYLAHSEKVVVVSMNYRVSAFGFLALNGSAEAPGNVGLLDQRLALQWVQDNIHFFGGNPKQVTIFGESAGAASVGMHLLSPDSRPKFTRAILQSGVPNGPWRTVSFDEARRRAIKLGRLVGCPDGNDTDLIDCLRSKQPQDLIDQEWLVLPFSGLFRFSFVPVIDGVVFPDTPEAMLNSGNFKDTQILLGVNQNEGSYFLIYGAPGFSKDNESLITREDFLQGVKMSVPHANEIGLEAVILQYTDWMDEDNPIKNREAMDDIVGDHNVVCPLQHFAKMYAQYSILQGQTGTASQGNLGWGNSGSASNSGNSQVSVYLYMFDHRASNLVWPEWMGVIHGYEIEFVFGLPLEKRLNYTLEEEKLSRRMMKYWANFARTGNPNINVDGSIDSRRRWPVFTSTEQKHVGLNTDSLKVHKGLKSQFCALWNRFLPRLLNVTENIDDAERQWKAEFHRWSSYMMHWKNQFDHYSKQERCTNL

SMILES	IC50 (Acetylcholinesterase) [µM]	inhibition [1] [%]
C=C[C@H]1CO[C@@H]2C[C@H]1Cc1c3[nH]c4ccccc4c3cc[n+]12	10	–
CNCCc1c[nH]c2ccccc12	–	49.8
CN1CCC2(O)c3ccccc3NC12 (centres undefined)	–	53.7
C=C[C@H]1CO[C@@H]2C[C@H]1C(=O)c1c3[nH]c4ccccc4c3cc[n+]12	3.4	–
